# In patent publication US11078204B2, “Heterocyclic derivatives as PI3K inhibitors” (Incyte Corporation, priority 2018, dated 2021):
# Structures can show the parent of a compound that is named as a salt.
# Experiments:
# [1] = target: PI3Kγ (p110γ) Recombinant Human Protein (Homo sapiens (Human), UniProt P48736); test: PI3K-γ Scintillation Proximity Assay; assay type: biochemical; conditions: 20 μM PIP2, 2 μM ATP, 13 nM PI3Kγ, 120 min
# How it was run: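 Recombinant human p110γ (13 nM) phosphorylated 20 μM PIP2 with 2 μM ATP plus 0.5 μCi [γ-33P]ATP for 120 min at room temperature in 20 mM MOPS pH 6.7, 10 mM MgCl2, 5 mM DTT, 0.03% CHAPS, 2% DMSO. Product was captured on WGA SPA beads in EDTA quench and counted. IC50 was fitted from percent of solvent-control activity.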
# [2] = target: PI3Kδ (p110δ/p85α) Recombinant Human Protein (Homo sapiens (Human), UniProt O00329); test: PI3Kδ Scintillation Proximity Assay; assay type: biochemical; conditions: 20 μM PIP2, 2 μM ATP, 3.4 nM PI3Kδ, 120 min
# Chain of PI3Kδ (p110δ/p85α) Recombinant Human Protein (O00329 whole entry): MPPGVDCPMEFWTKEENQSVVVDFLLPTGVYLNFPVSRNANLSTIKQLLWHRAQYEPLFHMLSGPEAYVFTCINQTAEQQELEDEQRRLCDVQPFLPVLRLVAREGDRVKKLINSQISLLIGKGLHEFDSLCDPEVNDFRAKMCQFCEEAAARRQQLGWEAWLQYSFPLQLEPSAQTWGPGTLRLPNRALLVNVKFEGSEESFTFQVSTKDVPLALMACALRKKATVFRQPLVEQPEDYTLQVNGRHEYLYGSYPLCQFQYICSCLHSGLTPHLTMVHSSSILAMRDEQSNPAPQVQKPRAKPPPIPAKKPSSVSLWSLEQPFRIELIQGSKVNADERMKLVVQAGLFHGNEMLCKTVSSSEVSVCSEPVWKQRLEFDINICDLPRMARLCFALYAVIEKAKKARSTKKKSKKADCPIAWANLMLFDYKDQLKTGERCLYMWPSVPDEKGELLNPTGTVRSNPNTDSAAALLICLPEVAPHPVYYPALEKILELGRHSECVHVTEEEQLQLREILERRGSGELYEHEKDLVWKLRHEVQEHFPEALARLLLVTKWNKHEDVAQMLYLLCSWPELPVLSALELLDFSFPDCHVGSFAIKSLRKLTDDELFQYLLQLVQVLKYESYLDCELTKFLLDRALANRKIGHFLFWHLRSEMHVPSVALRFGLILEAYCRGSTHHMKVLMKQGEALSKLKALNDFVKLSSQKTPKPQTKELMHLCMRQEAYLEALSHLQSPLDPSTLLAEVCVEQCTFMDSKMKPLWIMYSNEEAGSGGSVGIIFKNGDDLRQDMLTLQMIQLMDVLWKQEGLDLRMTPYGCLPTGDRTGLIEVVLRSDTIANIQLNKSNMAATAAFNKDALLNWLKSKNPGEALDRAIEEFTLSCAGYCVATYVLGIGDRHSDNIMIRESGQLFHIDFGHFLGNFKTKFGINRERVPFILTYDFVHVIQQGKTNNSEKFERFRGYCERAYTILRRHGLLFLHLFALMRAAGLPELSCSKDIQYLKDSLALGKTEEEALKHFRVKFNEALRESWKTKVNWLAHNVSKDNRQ
# Chain of PI3Kδ (p110δ/p85α) Recombinant Human Protein (P27986 whole entry partner): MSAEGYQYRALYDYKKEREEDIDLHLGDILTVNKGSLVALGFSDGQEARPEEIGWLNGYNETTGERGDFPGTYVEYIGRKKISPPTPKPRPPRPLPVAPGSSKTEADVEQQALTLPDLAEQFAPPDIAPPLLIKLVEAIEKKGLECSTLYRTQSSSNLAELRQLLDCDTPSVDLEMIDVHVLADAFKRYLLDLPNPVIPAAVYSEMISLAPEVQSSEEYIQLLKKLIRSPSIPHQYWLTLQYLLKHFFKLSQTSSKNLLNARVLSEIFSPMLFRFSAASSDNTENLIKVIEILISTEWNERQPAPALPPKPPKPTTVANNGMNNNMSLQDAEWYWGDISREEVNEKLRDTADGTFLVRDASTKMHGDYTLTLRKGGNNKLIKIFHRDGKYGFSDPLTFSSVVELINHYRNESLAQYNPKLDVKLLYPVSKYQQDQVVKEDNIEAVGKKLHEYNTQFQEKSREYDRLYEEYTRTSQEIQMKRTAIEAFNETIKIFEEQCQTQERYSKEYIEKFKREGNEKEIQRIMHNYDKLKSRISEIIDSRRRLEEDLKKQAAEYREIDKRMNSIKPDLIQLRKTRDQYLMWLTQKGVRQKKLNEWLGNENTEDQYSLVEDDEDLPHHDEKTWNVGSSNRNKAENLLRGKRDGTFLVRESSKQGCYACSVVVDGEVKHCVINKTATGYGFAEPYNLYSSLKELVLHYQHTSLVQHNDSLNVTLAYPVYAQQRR
# How it was run: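 Recombinant p110δ/p85α (3.4 nM) with 20 μM PIP2, 2 μM ATP plus [γ-^33P]ATP, in 20 mM MOPS pH 6.7, 10 mM MgCl2, 5 mM DTT, 0.03% CHAPS, 2% DMSO; 120 min at room temperature. EDTA quench, WGA SPA beads, scintillation counting. IC50 from percent of solvent-control activity versus log concentration.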
# [3] = test system: Phosphorylated Ribosomal Protein S6 (RPS6) in THP-1 cells; test: THP-1 RPS6 ELISA Assay; assay type: cell-based; conditions: Homo sapiens, 2 hours compound, 10 nM MCP-1 for 15 minutes, Phospho-RPS6 ELISA, read-out: PI3Kγ_THP1_RPS6_ELISA IC50
# Description: Example A. THP-1 RPS6 ELISA Assay To measure the Phosphorylated Ribosomal Protein S6 (RPS6) in cell lysates, THP-1 cells (Human Acute Monocytic Leukemia) are purchased from ATCC (Manassas, Va.) and maintained in RPMI with 10% FBS (Gibco/Life Technologies, Carlsbad, Calif.). For the assay, THP-1 cells are serum starved overnight in RPMI, then plated in RPMI (2×10^5 cells/well in 90 μL) into 96-well flat-bottom tissue culture treated plates (Corning, Corning, N.Y.), in the presence or absence of a concentration range of test compounds. Covered plates are incubated for 2 hours at 37° C., 5% CO2 then treated with or without 10 nM MCP-1 (MYBioSource, San Diego, Calif.) for 15 minutes at 37° C., 5% CO2. Plates are centrifuged at 1600 RPM and supernatants are removed. Cells are lysed in Lysis Buffer (Cell Signaling, Danvers, Mass.) with Protease Inhibitor (Calbiochem/EMD, Germany), PMSF (Sigma, St Louis Mo.), HALTS (Thermo Fisher, Rockford, Ill.) for 30 min on wet ice. Cell lysates are frozen at −80° C. before testing. The lysates are tested in the Human/Mouse/Rat Phospho-RPS6 ELISA (R&D Systems, Inc. Minn, Minn.). The plate is measured using a microplate reader (SpectraMax M5-Molecular Devices, LLC Sunnyvale, Calif.) set to 450 nm with a wavelength correction of 540. IC50 determination is performed by fitting the curve of inhibitor percent inhibition versus the log of the inhibitor concentration using the GraphPad Prism 5.0 software.
# Chain of PI3Kγ (p110γ) Recombinant Human Protein (P48736 whole entry): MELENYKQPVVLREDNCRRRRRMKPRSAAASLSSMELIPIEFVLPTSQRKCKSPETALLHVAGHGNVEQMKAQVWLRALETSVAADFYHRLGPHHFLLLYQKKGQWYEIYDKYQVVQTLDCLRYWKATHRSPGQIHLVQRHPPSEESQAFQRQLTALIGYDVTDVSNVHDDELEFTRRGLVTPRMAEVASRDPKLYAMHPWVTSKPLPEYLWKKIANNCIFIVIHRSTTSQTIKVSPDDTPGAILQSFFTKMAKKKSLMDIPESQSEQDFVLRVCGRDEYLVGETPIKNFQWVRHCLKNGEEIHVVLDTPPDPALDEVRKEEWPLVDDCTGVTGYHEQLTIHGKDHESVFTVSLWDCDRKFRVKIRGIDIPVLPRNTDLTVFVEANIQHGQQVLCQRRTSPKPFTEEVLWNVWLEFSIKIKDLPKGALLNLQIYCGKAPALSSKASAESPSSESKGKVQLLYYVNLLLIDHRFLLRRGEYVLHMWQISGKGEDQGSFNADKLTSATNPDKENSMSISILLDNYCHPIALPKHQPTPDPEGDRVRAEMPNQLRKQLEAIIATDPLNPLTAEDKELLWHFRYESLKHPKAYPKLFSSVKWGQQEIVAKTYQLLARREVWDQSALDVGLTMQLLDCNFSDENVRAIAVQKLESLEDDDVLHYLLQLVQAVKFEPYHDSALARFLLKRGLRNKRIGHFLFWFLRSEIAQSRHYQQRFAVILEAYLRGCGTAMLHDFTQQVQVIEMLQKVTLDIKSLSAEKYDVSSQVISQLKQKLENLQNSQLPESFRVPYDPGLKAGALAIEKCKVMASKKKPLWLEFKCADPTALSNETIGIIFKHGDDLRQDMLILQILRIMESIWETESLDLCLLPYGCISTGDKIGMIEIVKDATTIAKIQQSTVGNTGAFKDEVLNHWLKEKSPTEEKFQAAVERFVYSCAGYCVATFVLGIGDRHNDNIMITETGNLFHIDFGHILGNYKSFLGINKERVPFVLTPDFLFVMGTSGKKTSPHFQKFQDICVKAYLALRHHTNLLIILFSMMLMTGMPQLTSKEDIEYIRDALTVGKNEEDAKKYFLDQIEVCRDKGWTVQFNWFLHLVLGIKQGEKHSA
IC50 [1] [µM],IC50 [2] [µM],IC50 [3] [µM],SMILES
≤ 0.1,≥ 2,≥ 1,"CC(C1CC1)n1cc2cc(-c3cnc4c(N)ncnn34)cnc2n1 (stereo not drawn) [Example 25, 7-(2-(1-Cyclopropylethyl)-2H-pyrazolo[3,4-b]pyridin-5-yl)imidazo[2,1-f][1,2,4]triazin-4-amine trifluoroacetate salt]"
≤ 0.1,< 2,≥ 1,"C[C@@H](C1CC1)N1Cc2cc(-c3cnc4c(N)nc(C(F)(F)F)cn34)cc(S(C)(=O)=O)c2C1=O [Example 3, (S)-5-(8-Amino-6-(trifluoromethyl)imidazo[1,2-a]pyrazin-3-yl)-2-(1-cyclopropylethyl)-7-(methylsulfonyl)isoindolin-1-one]"
≤ 0.1,≤ 0.1,≤ 0.5,"Cc1ncc(-c2cn3c(-c4cc5c(c(S(C)(=O)=O)c4)C(=O)N([C@@H](C)C4CC4)C5)cnc3c(N)n2)o1 (single isomer, unassigned) [Example 33, trifluoroacetate salt]"
≤ 0.1,≤ 0.5,< 1,"C[C@@H](C1CC1)N1Cc2cc(-c3cnc4c(N)nc(C(=O)NC56CC(C5)C6)cn34)cc(S(C)(=O)=O)c2C1=O (single isomer, unassigned) [Example 29b, trifluoroacetate salt]"
≤ 0.1,< 2,< 1,"C[C@@H](C1CC1)N1Cc2cc(-c3cnc4c(N)ncnn34)cc(C(C)(C)O)c2C1=O [Example 17, (S)-5-(4-Aminoimidazo[2,1-f][1,2,4]triazin-7-yl)-2-(1-cyclopropylethyl)-7-(2-hydroxypropan-2-yl)isoindolin-1-one trifluoroacetate salt]"

SMILES,IC50 [1] [µM],IC50 [2] [µM],IC50 [3] [µM]
"C[C@@H](C1CC1)N1Cc2cc(-c3cnc4c(N)nc(C(=O)N5CCC5)cn34)cc(S(C)(=O)=O)c2C1=O [Example 29a, (S)-5-(8-Amino-6-(azetidine-1-carbonyl)imidazo[1,2-a]pyrazin-3-yl)-2-(1-cyclopropylethyl)-7-(methylsulfonyl)isoindolin-1-one, trifluoroacetate salt]",≤ 0.1,< 2,≥ 1
